The record followed here is PMC12652692, “Synthesis and In Vitro Anticancer Evaluation of Novel Phosphonium Derivatives of Chrysin” (International Journal of Molecular Sciences, 2025).

Assay in all cases: NCI60 one-dose screen
Common to all, as to assay type: cell-based, human

For assay [1], the system named is PC-3. To be noted: PC-3, 10 μM. How it is done: (§1) The screening results are presented in the Supplementary Materials (Table S1), where the cytotoxicity was determined for the 10 µM concentration. […] The negative numbers indicate significant decreases in the cell number. […] Compared to the reference chrysin (2), all phosphonium hybrids (3a–h) had significant antiproliferative activities. […] At the same time, it should be noted that more than 60% average reduction was also obtained in the case of the other examined conjugates (3a–h).
(§2) A detailed description of the NCI screening procedures, including the one-dose and five-dose tests, can be found in the Supplementary Materials, on the website of NCI [39], and in our previous work.
(§3) A detailed description of the NCI screening procedures can also be found on the website of NCI [39], and in our […]
(§4) All candidates were examined at first at a single high dose (10 μM) in the full NCI60 cell panel. The value reported for the one-dose test is growth relative to the no-drug control and relative to the time zero number of cells. This made possible the disclosure of both growth inhibition (numbers between 0 and 100) and lethality (numbers less than 0). For example, a value of 100 means no growth inhibition. A value of 20 would mean 80% growth inhibition. A value of 0 means no net growth over the course of the analysis. A value of −20 would mean 20% lethality. A value of −100 means all cells are dead. […]
(§5) concentration levels. The human tumor cell lines of the cancer screening panel were grown in RPMI 1640 medium containing 5% fetal bovine serum and 2 mM l-glutamine. Characteristically, cells were injected in 96-well microtiter plates in 0.1 mL at plating densities ranging from 5000 to 40,000 cells/well, depending on the doubling time of individual cell lines. After cell inoculation, the microtiter plates were incubated at 37 °C, 5% carbon dioxide, 95% air, and 100% relative humidity for 24 hours before the addition of tested compounds. After 24 hours, 2 plates of each cell line were fixed in situ with Cl3COOH (TCA), to represent a measurement of the cell population for each cell line at the time of drug addition (tz). Tested compounds were solubilized in DMSO at 400-fold the desired final maximum test concentration and stored frozen before application. In the course of the drug addition, an aliquot of frozen concentrate was thawed and diluted to twice the desired final maximum test concentration with a complete medium containing 50 μg mL−1 gentamicin. Additional four, 10-fold or ½ log serial dilutions were produced to furnish a total of five drug concentrations plus control. Aliquots of 0.1 mL of these different drug dilutions were added to the appropriate microtiter wells already containing 0.1 mL of medium, resulting in the required final drug concentrations.
(§6) Following drug addition, the plates were incubated at 37 °C, 5% carbon dioxide, 95% air, and 100% relative humidity for an additional 48 hours. For adherent cells, the test was finished by the addition of cold Cl3COOH. Cells were fixed in situ by the addition of 50 μL of cold 50% (w/v) Cl3COOH, and incubated at 4 °C for 1 hour. The supernatant was discarded, and the plates were washed with H2O (5×) and dried in air. Sulforhodamine B (SRB) solution (0.1 mL) at 0.4% (w/v) in 1% CH3COOH was added to each well, and plates were incubated at RT for 10 min. After staining, the unbound dye was removed by washing five times with 1% CH3COOH, and the plates were dried in the air. The bound stain is afterward solubilized with a 10 mM trizma base, and the absorbance is read on an automated plate reader at λ = 515 nm. Utilizing the seven absorbance measurements [time zero (tz), control growth (c), and test growth in the presence of the drug at the five concentration levels (ti)], the percentage growth was determined at each of the drug concentration levels. Growth inhibition (%) was calculated as:
(§7) [(ti − tz)/(c − tz)] × 100, for concentrations where ti ≥ tz (1) […]

The subject of assay [2] is SR. Conditions: 10 μM. How it is done:
as §1, §2, §3, §4, §5, §6, §7

The subject of assay [3] is T-47D. To be noted: 10 μM. The protocol: as §1, §2, §3, §4, §5, §6, §7
For assay [4], the system named is UACC-62. Conditions: UACC-62, 10 μM. How it is done:
as §1, §2, §3, §4, §5, §6, §7

Assay [5] deals with HOP-92. To be noted: HOP-92, 10 μM. How it is done: as §1, §2, §3, §4, §5, §6, §7

Turning to `O=c1cc(-c2ccccc2)oc2cc(OCCCC[P+](c3ccccc3)(c3ccccc3)c3ccccc3)cc(O)c12` [3a], the Growth percent is −87.34% in assay [1], −39.83% in assay [2], −62.52% in assay [3] and −59.51% in assay [4].

With `Cc1ccc([P+](CCCCOc2cc(O)c3c(=O)cc(-c4ccccc4)oc3c2)(c2ccc(C)cc2)c2ccc(C)cc2)cc1` [3b], the Growth percent in assay [2] was −36.14%; in assay [3], −52.52%; in assay [4] it was −88.32%.

For the compound `COc1ccc([P+](CCCCOc2cc(O)c3c(=O)cc(-c4ccccc4)oc3c2)(c2ccc(OC)cc2)c2ccc(OC)cc2)cc1` [3c], the Growth percent in assay [5] is reported as −79.86%; in assay [1], −82.70%.

Turning to `O=c1cc(-c2ccccc2)oc2cc(OCCCC[P+](c3ccc(F)cc3)(c3ccc(F)cc3)c3ccc(F)cc3)cc(O)c12` [3d], the figures for the Growth percent in assay [2], in assay [3] and in assay [4] were −36.14%, −53.27% and −96.92%, respectively.

As for `O=c1cc(-c2ccccc2)oc2cc(OCCCC[P+](C3CCCCC3)(C3CCCCC3)C3CCCCC3)cc(O)c12` [3e], the Growth percent is given as −75.86% in assay [5] and −70.81% in assay [1].

Consider `COc1c(C)cc([P+](CCCCOc2cc(O)c3c(=O)cc(-c4ccccc4)oc3c2)(c2cc(C)c(OC)c(C)c2)c2cc(C)c(OC)c(C)c2)cc1C` [3f], for which the Growth percent in assay [5] is on record as −68.75%; in assay [1], −76.48%; in assay [2], 23.00%; in assay [3], −52.77%; in assay [4], −80.44%.

As for `Cc1ccccc1[P+](CCCCOc1cc(O)c2c(=O)cc(-c3ccccc3)oc2c1)(c1ccccc1C)c1ccccc1C` [3g], the values for the Growth percent in assay [5], in assay [1] and in assay [4] were −98.85%, −97.92% and −97.94%, respectively.

`O=c1cc(-c2ccccc2)oc2cc(OCCCC[P+](c3ccccc3)(c3ccccc3)c3ccccn3)cc(O)c12` [3h]: the Growth percent in assay [5] is reported as −69.74%; in assay [1] it was −35.64%; in assay [2], 0.35%; in assay [3], −49.47%; in assay [4], −73.54%.

As to `O=c1cc(-c2ccccc2)oc2cc(O)cc(O)c12` [compound 2, 5,7-dihydroxyflavone, reference compound], the Growth percent in assay [5] stood at 77.93%; in assay [1], 93.17%; in assay [2], 77.87%; in assay [3], 101.44%; in assay [4] it was 82.24%.
